Assay results reported in US20100041089A1, “IMPROVED METHOD FOR DETECTING CHEMICAL […]” (priority 2006, published 2010).

System: yeast genes (expressed mRNA)
Experiment: DNA chip measurement of expressed mRNA of yeast genes after culture with a toxic chemical substance
Type: cell-based, Saccharomyces cerevisiae S288C
Details: for level of expressed mRNA in the presence of chemical substance / level in the absence of chemical substance: cultured two hours with the chemical substance; for The level of expressed mRNA in the presence of chemical substance/The level of expressed mRNA in the absence of chemical substance: cultured two hours with substance
Outline: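 S. cerevisiae S288C grown at 25 °C in YPD, exposed in log phase for 2 h to a toxicant at growth-inhibiting, non-lethal concentration. Cy3/Cy5-labelled cDNA from poly(A) mRNA hybridized to whole-genome chip at 65 °C >12 h. Ratio to untreated control, ≥2 significant.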

“Manganese ethylenebis(dithiocarbamate) [(8)]” was tested, and the “level of expressed mRNA in the presence of chemical substance / level in the absence of chemical substance” value (yeast gene YJL097W) was 0.8, the “The level of expressed mRNA in the presence of chemical substance/The level of expressed mRNA in the absence of chemical substance” value (yeast gene YJL151C) was 0.8 and the “The level of expressed mRNA in the presence of chemical substance/The level of expressed mRNA in the absence of chemical substance” value (yeast gene YJL152W) was 0.7. For the same substance, the “The level of expressed mRNA in the presence of chemical substance/The level of expressed mRNA in the absence of chemical substance” value (yeast gene YJL161W) was 1.4, the “The level of expressed mRNA in the presence of chemical substance/The level of expressed mRNA in the absence of chemical substance” value (yeast gene YJL171C) was 0.9 and the “The level of expressed mRNA in the presence of chemical substance/The level of expressed mRNA in the absence of chemical substance” value (yeast gene YJR008W) was 1.1. The “level of expressed mRNA in the presence of chemical substance / level in the absence of chemical substance” value (yeast gene YJR030C) was 0.9, the “The level of expressed mRNA in the presence of chemical substance/The level of expressed mRNA in the absence of chemical substance” value (yeast gene YJR054W) was 1.6 and the “level of expressed mRNA in the presence of chemical substance / level in the absence of chemical substance” value (yeast gene YKL051W) was 0.8. For the same substance, the “The level of expressed mRNA in the presence of chemical substance/The level of expressed mRNA in the absence of chemical substance” value (yeast gene YKL071W) was 24.7, the “The level of expressed mRNA in the presence of chemical substance/The level of expressed mRNA in the absence of chemical substance” value (yeast gene YKL086W) was 1.1 and the “level of expressed mRNA in the presence of chemical substance / level in the absence of chemical substance” value (yeast gene YKL097C) was 0.4. For the same substance, the “level of expressed mRNA in the presence of chemical substance / level in the absence of chemical substance” value (yeast gene YKL100C) was 0.7, the “The level of expressed mRNA in the presence of chemical substance/The level of expressed mRNA in the absence of chemical substance” value (yeast gene YKL151C) was 1.0 and the “The level of expressed mRNA in the presence of chemical substance/The level of expressed mRNA in the absence of chemical substance” value (yeast gene YKL153W) was 0.7. The “The level of expressed mRNA in the presence of chemical substance/The level of expressed mRNA in the absence of chemical substance” value (yeast gene YKL195W) was 1.2, the “level of expressed mRNA in the presence of chemical substance / level in the absence of chemical substance” value (yeast gene YKR040C) was 1.0 and the “The level of expressed mRNA in the presence of chemical substance/The level of expressed mRNA in the absence of chemical substance” value (yeast gene YKR091W) was 1.3. For the same substance, the “The level of expressed mRNA in the presence of chemical substance/The level of expressed mRNA in the absence of chemical substance” value (yeast gene YLR054C) was 1.1, the “The level of expressed mRNA in the presence of chemical substance/The level of expressed mRNA in the absence of chemical substance” value (yeast gene YLR149C) was 1.1 and the “The level of expressed mRNA in the presence of chemical substance/The level of expressed mRNA in the absence of chemical substance” value (yeast gene YLR152C) was 1.2. The “The level of expressed mRNA in the presence of chemical substance/The level of expressed mRNA in the absence of chemical substance” value (yeast gene YLR194C) was 1.0, the “level of expressed mRNA in the presence of chemical substance / level in the absence of chemical substance” value (yeast gene YLR226W) was 1.3 and the “The level of expressed mRNA in the presence of chemical substance/The level of expressed mRNA in the absence of chemical substance” value (yeast gene YLR324W) was 1.0. For the same substance, the “level of expressed mRNA in the presence of chemical substance / level in the absence of chemical substance” value (yeast gene YLR338W) was 0.8, the “The level of expressed mRNA in the presence of chemical substance/The level of expressed mRNA in the absence of chemical substance” value (yeast gene YLR350W) was 1.0 and the “The level of expressed mRNA in the presence of chemical substance/The level of expressed mRNA in the absence of chemical substance” value (yeast gene YLR387C) was 1.4. For the same substance, the “level of expressed mRNA in the presence of chemical substance / level in the absence of chemical substance” value (yeast gene YLR392C) was 1.3, the “level of expressed mRNA in the presence of chemical substance / level in the absence of chemical substance” value (yeast gene YLR415C) was 0.9 and the “level of expressed mRNA in the presence of chemical substance / level in the absence of chemical substance” value (yeast gene YLR427W) was 1.1. The “The level of expressed mRNA in the presence of chemical substance/The level of expressed mRNA in the absence of chemical substance” value (yeast gene YLR460C) was 8.1, the “level of expressed mRNA in the presence of chemical substance / level in the absence of chemical substance” value (yeast gene YML013W) was 0.6 and the “level of expressed mRNA in the presence of chemical substance / level in the absence of chemical substance” value (yeast gene YML029W) was 0.9. For the same substance, the “level of expressed mRNA in the presence of chemical substance / level in the absence of chemical substance” value (yeast gene YML041C) was 1.8, the “level of expressed mRNA in the presence of chemical substance / level in the absence of chemical substance” value (yeast gene YML079W) was 1.2 and the “The level of expressed mRNA in the presence of chemical substance/The level of expressed mRNA in the absence of chemical substance” value (yeast gene YML117W) was 0.7. The “The level of expressed mRNA in the presence of chemical substance/The level of expressed mRNA in the absence of chemical substance” value (yeast gene YMR009W) was 1.4, the “The level of expressed mRNA in the presence of chemical substance/The level of expressed mRNA in the absence of chemical substance” value (yeast gene YMR067C) was 1.1 and the “level of expressed mRNA in the presence of chemical substance / level in the absence of chemical substance” value (yeast gene YMR068W) was 0.8. For the same substance, the “level of expressed mRNA in the presence of chemical substance / level in the absence of chemical substance” value (yeast gene YMR071C) was 1.1, the “The level of expressed mRNA in the presence of chemical substance/The level of expressed mRNA in the absence of chemical substance” value (yeast gene YMR090W) was 3.9 and the “The level of expressed mRNA in the presence of chemical substance/The level of expressed mRNA in the absence of chemical substance” value (yeast gene YMR095C) was 1.2. For the same substance, the “The level of expressed mRNA in the presence of chemical substance/The level of expressed mRNA in the absence of chemical substance” value (yeast gene YMR097C) was 1.5, the “The level of expressed mRNA in the presence of chemical substance/The level of expressed mRNA in the absence of chemical substance” value (yeast gene YMR102C) was 1.0 and the “The level of expressed mRNA in the presence of chemical substance/The level of expressed mRNA in the absence of chemical substance” value (yeast gene YMR107W) was 1.3. The “level of expressed mRNA in the presence of chemical substance / level in the absence of chemical substance” value (yeast gene YMR160W) was 0.9, the “The level of expressed mRNA in the presence of chemical substance/The level of expressed mRNA in the absence of chemical substance” value (yeast gene YMR180C) was 1.8 and the “The level of expressed mRNA in the presence of chemical substance/The level of expressed mRNA in the absence of chemical substance” value (yeast gene YMR184W) was 1.9. The “The level of expressed mRNA in the presence of chemical substance/The level of expressed mRNA in the absence of chemical substance” value (yeast gene YMR191W) was 1.1, the “The level of expressed mRNA in the presence of chemical substance/The level of expressed mRNA in the absence of chemical substance” value (yeast gene YMR295C) was 1.0 and the “The level of expressed mRNA in the presence of chemical substance/The level of expressed mRNA in the absence of chemical substance” value (yeast gene YMR316W) was 1.6. For the same substance, the “level of expressed mRNA in the presence of chemical substance / level in the absence of chemical substance” value (yeast gene YNL026W) was 1.0.
